Laboratory results taken from ChEMBL document CHEMBL4507267 (2021).

Key:
[1] = biological target: Ephrin type-A receptor 6 (Homo sapiens) (UniProt Q9UF33); details: Compound concentration 1000.0 nM
[2] = system: Leucine-rich repeat serine/threonine-protein kinase 2 (Homo sapiens), Q5S007 [G2019S]; details: Compound concentration 1000.0 nM
[3] = system: Epidermal growth factor receptor (Homo sapiens), P00533 [L861Q]; details: Compound concentration 1000.0 nM
[4] = biological target: Atypical kinase COQ8B, mitochondrial (Homo sapiens) (UniProt Q96D53); details: Compound concentration 1000.0 nM
[5] = biological target: Myotonin-protein kinase (Homo sapiens) (UniProt Q09013); details: Compound concentration 1000.0 nM
[6] = biological target: Ephrin type-B receptor 4 (Homo sapiens) (UniProt P54760); details: Compound concentration 1000.0 nM
[7] = biological target: NT-3 growth factor receptor (Homo sapiens) (UniProt Q16288); details: Compound concentration 1000.0 nM
[8] = biological target: Serine/threonine-protein kinase tousled-like 2 (Homo sapiens) (UniProt Q86UE8); details: Compound concentration 1000.0 nM
[9] = biological target: Membrane-associated tyrosine- and threonine-specific cdc2-inhibitory kinase (Homo sapiens) (UniProt Q99640); details: Compound concentration 1000.0 nM
[10] = biological target: Muscarinic acetylcholine receptor M1 (Homo sapiens) (UniProt P11229); details: Compound concentration 10.0 uM
[11] = biological target: Ephrin type-A receptor 7 (Homo sapiens) (UniProt Q15375); details: Compound concentration 1000.0 nM
[12] = biological target: Protein-tyrosine kinase 2-beta (Homo sapiens) (UniProt Q14289); details: Compound concentration 1000.0 nM
[13] = biological target: Mitogen-activated protein kinase 1 (Homo sapiens) (UniProt P28482); details: Compound concentration 1000.0 nM
[14] = biological target: Serine/threonine-protein kinase 35 (Homo sapiens) (UniProt Q8TDR2); details: Compound concentration 1000.0 nM
[15] = biological target: MAP/microtubule affinity-regulating kinase 3 (Homo sapiens) (UniProt P27448); details: Compound concentration 1000.0 nM
Histamine H2 receptor = Histamine H2 receptor (Homo sapiens, UniProt P25021); details: Compound concentration 10.0 uM
[16] = biological target: Ephrin type-B receptor 6 (Homo sapiens) (UniProt O15197); details: Compound concentration 1000.0 nM
[17] = system: Tyrosine-protein kinase ABL1 (Homo sapiens), P00519 [Q252H]; details: Compound concentration 1000.0 nM
[18] = biological target: Serine/threonine-protein kinase haspin (Homo sapiens) (UniProt Q8TF76); details: Compound concentration 1000.0 nM
[19] = biological target: Proto-oncogene tyrosine-protein kinase Src (Homo sapiens) (UniProt P12931); details: Compound concentration 1000.0 nM
[20] = biological target: Angiopoietin-1 receptor (Homo sapiens) (UniProt Q02763); details: Compound concentration 1000.0 nM
[21] = biological target: Serine/threonine-protein kinase PAK 4 (Homo sapiens) (UniProt O96013); details: Compound concentration 1000.0 nM
[22] = system: Epidermal growth factor receptor (Homo sapiens), P00533 [L858R]; details: Compound concentration 1000.0 nM
[23] = biological target: Non-receptor tyrosine-protein kinase TYK2 (Homo sapiens) (UniProt P29597); details: Compound concentration 1000.0 nM
[24] = biological target: BDNF/NT-3 growth factors receptor (Homo sapiens) (UniProt Q16620); details: Compound concentration 1000.0 nM
[25] = biological target: Serine/threonine-protein kinase B-raf (Homo sapiens) (UniProt P15056); details: Compound concentration 1000.0 nM
[26] = biological target: G protein-coupled receptor kinase 4 (Homo sapiens) (UniProt P32298); details: Compound concentration 1000.0 nM
[27] = biological target: Mast/stem cell growth factor receptor Kit (Homo sapiens) (UniProt P10721); details: Compound concentration 1000.0 nM
[28] = biological target: Cyclin-dependent kinase 3 (Homo sapiens) (UniProt Q00526); details: Compound concentration 1000.0 nM
[29] = biological target: Serine/threonine-protein kinase BRSK2 (Homo sapiens) (UniProt Q8IWQ3); details: Compound concentration 1000.0 nM
[30] = biological target: Serine/threonine-protein kinase TNNI3K (Homo sapiens) (UniProt Q59H18); details: Compound concentration 1000.0 nM
[31] = biological target: Serine/threonine-protein kinase 17B (Homo sapiens) (UniProt O94768); details: Compound concentration 1000.0 nM
[32] = biological target: Ephrin type-B receptor 2 (Homo sapiens) (UniProt P29323); details: Compound concentration 1000.0 nM
[33] = biological target: Mitogen-activated protein kinase kinase kinase kinase 3 (Homo sapiens) (UniProt Q8IVH8); details: Compound concentration 1000.0 nM
[34] = biological target: Serine/threonine-protein kinase PLK2 (Homo sapiens) (UniProt Q9NYY3); details: Compound concentration 1000.0 nM
[35] = biological target: Muscarinic acetylcholine receptor M2 (Homo sapiens) (UniProt P08172); details: Compound concentration 10.0 uM
[36] = biological target: D(1B) dopamine receptor (Homo sapiens) (UniProt P21918); details: Compound concentration 10.0 uM
[37] = biological target: Tyrosine-protein kinase BTK (Homo sapiens) (UniProt Q06187); details: Compound concentration 1000.0 nM
[38] = biological target: Mitogen-activated protein kinase 8 (Homo sapiens) (UniProt P45983); details: Compound concentration 1000.0 nM
[39] = biological target: Mitogen-activated protein kinase kinase kinase 2 (Homo sapiens) (UniProt Q9Y2U5); details: Compound concentration 1000.0 nM
[40] = biological target: STE20/SPS1-related proline-alanine-rich protein kinase (Homo sapiens) (UniProt Q9UEW8); details: Compound concentration 1000.0 nM
[41] = biological target: Phosphatidylinositol 4,5-bisphosphate 3-kinase catalytic subunit gamma isoform (Homo sapiens) (UniProt P48736); details: Compound concentration 1000.0 nM
[42] = biological target: cAMP-dependent protein kinase catalytic subunit beta (Homo sapiens) (UniProt P22694); details: Compound concentration 1000.0 nM
[43] = system: Receptor-type tyrosine-protein kinase FLT3 (Homo sapiens), P36888 [D835H]; details: Compound concentration 1000.0 nM
[44] = biological target: Ribosomal protein S6 kinase alpha-4 (Homo sapiens) (UniProt O75676); details: Compound concentration 1000.0 nM

Serine/threonine-protein kinase B-raf (Homo sapiens), sequence (P15056 whole entry): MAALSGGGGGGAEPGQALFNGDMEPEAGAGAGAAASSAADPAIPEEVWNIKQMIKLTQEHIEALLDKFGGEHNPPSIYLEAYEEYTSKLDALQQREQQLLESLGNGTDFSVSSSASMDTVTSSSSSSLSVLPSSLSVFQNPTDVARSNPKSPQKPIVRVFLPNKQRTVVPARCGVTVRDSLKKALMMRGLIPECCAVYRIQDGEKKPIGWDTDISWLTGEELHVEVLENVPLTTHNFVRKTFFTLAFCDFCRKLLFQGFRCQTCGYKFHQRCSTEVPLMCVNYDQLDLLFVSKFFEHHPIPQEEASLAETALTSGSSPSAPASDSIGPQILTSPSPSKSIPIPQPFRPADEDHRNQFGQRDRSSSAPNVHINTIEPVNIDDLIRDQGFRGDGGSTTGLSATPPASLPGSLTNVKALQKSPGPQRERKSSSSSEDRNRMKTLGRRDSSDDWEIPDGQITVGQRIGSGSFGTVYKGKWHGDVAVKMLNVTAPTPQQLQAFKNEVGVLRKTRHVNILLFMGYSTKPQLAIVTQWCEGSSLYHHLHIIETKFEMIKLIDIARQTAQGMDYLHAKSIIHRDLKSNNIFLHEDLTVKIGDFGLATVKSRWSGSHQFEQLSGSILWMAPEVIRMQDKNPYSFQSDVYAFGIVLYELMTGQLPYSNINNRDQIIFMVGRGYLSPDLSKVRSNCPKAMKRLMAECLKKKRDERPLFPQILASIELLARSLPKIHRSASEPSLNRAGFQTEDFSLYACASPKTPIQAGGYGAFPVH
Serine/threonine-protein kinase 17B (Homo sapiens), sequence (O94768 whole entry): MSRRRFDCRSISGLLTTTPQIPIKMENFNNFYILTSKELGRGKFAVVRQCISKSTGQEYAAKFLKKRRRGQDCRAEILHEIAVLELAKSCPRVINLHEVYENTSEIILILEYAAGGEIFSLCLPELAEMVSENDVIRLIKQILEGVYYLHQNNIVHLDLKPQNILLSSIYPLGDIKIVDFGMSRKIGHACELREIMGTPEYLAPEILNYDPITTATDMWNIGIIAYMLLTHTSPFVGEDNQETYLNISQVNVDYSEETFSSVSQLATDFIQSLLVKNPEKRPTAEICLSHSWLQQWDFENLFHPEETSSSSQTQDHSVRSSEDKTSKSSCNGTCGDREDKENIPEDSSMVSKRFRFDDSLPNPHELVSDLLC
Myotonin-protein kinase (Homo sapiens), sequence (Q09013 whole entry): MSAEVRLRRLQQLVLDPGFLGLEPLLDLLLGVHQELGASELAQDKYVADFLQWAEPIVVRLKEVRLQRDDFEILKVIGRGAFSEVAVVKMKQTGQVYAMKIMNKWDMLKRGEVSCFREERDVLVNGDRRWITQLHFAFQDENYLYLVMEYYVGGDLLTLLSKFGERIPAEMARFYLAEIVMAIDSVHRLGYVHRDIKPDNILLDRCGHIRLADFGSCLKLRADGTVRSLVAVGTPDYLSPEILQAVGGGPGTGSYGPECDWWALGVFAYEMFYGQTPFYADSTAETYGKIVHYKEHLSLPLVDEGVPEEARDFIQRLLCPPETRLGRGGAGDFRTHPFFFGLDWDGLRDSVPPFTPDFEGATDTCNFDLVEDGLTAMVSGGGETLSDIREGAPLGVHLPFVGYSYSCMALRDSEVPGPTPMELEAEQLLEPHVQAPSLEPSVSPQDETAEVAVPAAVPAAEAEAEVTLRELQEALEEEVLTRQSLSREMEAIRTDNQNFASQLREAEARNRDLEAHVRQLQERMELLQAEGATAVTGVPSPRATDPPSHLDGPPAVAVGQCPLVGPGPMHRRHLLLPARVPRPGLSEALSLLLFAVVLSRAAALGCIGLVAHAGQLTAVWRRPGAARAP
Tyrosine-protein kinase BTK (Homo sapiens), sequence (Q06187 whole entry): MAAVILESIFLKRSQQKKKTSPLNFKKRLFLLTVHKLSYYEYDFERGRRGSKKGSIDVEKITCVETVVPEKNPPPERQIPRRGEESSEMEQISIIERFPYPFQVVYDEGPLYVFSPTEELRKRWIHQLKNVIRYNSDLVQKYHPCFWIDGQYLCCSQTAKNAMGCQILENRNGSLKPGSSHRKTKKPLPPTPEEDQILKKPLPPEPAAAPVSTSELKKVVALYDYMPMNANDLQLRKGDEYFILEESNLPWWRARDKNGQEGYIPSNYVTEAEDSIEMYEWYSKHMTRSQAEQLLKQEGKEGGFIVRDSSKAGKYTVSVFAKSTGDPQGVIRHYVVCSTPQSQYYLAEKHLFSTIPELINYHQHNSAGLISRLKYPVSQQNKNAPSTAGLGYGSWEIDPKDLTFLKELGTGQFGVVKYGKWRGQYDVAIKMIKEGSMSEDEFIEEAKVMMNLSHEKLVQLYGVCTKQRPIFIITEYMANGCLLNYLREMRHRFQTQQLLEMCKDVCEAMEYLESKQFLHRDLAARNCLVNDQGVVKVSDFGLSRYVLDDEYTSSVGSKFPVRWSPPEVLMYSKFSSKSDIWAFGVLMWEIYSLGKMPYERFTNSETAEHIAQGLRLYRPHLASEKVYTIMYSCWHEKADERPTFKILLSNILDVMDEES
Cyclin-dependent kinase 3 (Homo sapiens), sequence (Q00526 whole entry, looked up): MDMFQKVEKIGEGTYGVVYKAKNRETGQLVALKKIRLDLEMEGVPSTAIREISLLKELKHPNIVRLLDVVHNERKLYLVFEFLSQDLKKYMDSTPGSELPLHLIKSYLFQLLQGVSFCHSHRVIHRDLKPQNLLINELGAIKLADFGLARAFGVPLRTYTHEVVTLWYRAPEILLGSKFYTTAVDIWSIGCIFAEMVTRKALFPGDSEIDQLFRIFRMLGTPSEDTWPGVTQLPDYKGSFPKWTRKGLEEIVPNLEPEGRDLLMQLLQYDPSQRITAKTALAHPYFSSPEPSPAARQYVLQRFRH
Serine/threonine-protein kinase BRSK2 (Homo sapiens), sequence (Q8IWQ3 whole entry): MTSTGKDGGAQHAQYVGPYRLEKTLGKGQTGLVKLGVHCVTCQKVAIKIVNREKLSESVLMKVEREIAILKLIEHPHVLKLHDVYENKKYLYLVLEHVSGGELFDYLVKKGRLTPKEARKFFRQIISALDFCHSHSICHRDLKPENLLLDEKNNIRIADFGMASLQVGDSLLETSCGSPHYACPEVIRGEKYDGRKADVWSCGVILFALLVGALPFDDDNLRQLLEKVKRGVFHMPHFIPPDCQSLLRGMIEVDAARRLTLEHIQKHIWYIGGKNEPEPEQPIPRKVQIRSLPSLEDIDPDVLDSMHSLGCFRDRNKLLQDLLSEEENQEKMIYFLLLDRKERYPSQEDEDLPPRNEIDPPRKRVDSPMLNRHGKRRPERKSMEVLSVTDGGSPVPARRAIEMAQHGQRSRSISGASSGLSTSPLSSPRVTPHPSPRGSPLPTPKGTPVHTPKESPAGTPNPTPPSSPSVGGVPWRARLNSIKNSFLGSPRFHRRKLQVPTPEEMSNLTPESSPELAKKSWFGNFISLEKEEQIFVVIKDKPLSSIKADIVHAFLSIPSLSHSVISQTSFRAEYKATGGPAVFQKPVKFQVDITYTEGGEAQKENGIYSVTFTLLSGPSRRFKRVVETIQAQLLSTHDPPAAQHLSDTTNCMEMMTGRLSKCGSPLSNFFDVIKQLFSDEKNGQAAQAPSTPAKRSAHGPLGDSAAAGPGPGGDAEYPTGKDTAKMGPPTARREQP
Mitogen-activated protein kinase kinase kinase kinase 3 (Homo sapiens), sequence (Q8IVH8 whole entry): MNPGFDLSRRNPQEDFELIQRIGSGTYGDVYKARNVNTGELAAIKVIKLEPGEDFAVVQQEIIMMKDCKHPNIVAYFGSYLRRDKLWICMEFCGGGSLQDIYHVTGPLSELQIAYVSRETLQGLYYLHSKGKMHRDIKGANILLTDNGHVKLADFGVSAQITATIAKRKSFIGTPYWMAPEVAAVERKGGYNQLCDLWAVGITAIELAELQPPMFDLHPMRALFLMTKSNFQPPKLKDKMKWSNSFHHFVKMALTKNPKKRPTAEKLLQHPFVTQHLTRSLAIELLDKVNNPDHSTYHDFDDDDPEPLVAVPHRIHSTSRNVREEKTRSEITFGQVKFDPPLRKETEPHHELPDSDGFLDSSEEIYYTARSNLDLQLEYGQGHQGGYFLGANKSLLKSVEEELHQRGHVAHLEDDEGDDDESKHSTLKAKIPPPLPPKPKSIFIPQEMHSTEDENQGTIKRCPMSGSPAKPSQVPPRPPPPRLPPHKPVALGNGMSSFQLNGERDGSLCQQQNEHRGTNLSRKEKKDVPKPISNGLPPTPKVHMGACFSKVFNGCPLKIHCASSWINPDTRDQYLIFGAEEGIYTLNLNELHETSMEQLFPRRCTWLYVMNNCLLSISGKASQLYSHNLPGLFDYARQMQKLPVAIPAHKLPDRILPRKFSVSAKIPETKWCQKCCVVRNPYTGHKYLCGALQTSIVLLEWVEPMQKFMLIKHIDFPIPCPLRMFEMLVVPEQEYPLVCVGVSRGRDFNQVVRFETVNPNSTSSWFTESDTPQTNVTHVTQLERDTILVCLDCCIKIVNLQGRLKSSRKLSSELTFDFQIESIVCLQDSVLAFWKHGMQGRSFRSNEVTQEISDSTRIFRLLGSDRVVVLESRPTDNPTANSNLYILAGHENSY
Serine/threonine-protein kinase PLK2 (Homo sapiens), sequence (Q9NYY3 whole entry, looked up): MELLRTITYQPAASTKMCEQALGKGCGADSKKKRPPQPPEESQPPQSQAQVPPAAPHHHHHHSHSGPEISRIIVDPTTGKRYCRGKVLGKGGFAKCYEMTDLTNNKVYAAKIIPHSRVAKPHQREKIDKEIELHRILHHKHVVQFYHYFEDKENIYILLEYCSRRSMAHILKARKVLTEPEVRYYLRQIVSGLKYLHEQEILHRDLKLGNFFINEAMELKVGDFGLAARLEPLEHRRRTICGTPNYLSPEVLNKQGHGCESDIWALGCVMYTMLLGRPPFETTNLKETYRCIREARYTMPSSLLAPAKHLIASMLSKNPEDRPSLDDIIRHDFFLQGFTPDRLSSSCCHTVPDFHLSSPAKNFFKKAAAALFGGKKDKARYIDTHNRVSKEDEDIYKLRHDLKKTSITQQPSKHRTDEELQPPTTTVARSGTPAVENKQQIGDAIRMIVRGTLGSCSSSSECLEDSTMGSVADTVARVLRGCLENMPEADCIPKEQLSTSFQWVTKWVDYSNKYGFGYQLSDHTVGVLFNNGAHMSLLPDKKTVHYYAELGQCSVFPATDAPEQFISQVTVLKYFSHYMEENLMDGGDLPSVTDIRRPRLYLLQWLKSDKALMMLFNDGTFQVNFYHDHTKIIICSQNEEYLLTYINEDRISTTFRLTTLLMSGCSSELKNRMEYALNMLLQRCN

Cc1c(NC(=O)c2cc(C(N)=O)nc3cc(F)ccc23)c(C(F)(F)F)nn1Cc1ccc(C(C)(C)C)cc1 [BAY-588]
inactive: residual activity [1] 100% | residual activity [2] 100% | residual activity [3] 65% | residual activity [4] 70% | residual activity [5] 100% | residual activity [6] 100% | residual activity [7] 100% | residual activity [8] 100% | residual activity [9] 100% | inhibition [10] 37.2% | residual activity [11] 100% | residual activity [12] 92% | residual activity [13] 71% | residual activity [14] 100% | residual activity [15] 100% | inhibition (Histamine H2 receptor) 32.4% | residual activity [16] 100% | residual activity [17] 84% | residual activity [18] 100% | residual activity [19] 100% | residual activity [20] 94% | residual activity [21] 100% | residual activity [22] 100% | residual activity [23] 100% | residual activity [24] 100% | residual activity [25] 81% | residual activity [26] 100% | residual activity [27] 100% | residual activity [28] 100% | residual activity [29] 100% | residual activity [30] 81% | residual activity [31] 100% | residual activity [32] 83% | residual activity [33] 98% | residual activity [34] 100% | inhibition [35] 15.3% | inhibition [36] 2.96% | residual activity [37] 100% | residual activity [38] 100% | residual activity [39] 100% | residual activity [40] 100% | residual activity [41] 100% | residual activity [42] 100% | residual activity [43] 79% | residual activity [44] 92%

Cc1c(NC(=O)c2cc(C(N)=O)nc3cc(F)ccc23)c(C(F)(F)F)nn1Cc1ccc(C#N)cc1 [BAY-876]
inactive: residual activity [1] 87% | residual activity [2] 100% | residual activity [3] 67% | residual activity [4] 80% | residual activity [5] 92% | residual activity [6] 100% | residual activity [7] 69% | residual activity [8] 100% | residual activity [9] 99% | inhibition [10] 28.2% | residual activity [11] 86% | residual activity [12] 95% | residual activity [13] 100% | residual activity [14] 85% | residual activity [15] 100% | inhibition (Histamine H2 receptor) 30.4% | residual activity [16] 75% | residual activity [17] 100% | residual activity [18] 67% | residual activity [19] 81% | residual activity [20] 92% | residual activity [21] 98% | residual activity [22] 97% | residual activity [23] 83% | residual activity [24] 54% | residual activity [25] 91% | residual activity [26] 100% | residual activity [27] 72% | residual activity [28] 95% | residual activity [29] 100% | residual activity [30] 100% | residual activity [31] 72% | residual activity [32] 100% | residual activity [33] 99% | residual activity [34] 78% | inhibition [35] 25.8% | inhibition [36] -0.829% | residual activity [37] 70% | residual activity [38] 80% | residual activity [39] 85% | residual activity [40] 94% | residual activity [41] 80% | residual activity [42] 93% | residual activity [43] 100% | residual activity [44] 100%
